According to US20070059339A1, “1-O-BETA-D-glucopyranosylgeraniol-10,5-olide and use thereof” (ISKRA INDUSTRY CO., LTD., priority 2005, published 2007):
“Also recorded” adds a separate entry of the source. Marks after values point to notes of the source that are not given here.

How the values were obtained:
[1] = Obesity ameliorating, lipid metabolism ameliorating and hypoglycemic action in mice bred with a high fat diet; type: in vivo, ddY male SPF mice
Text: 6 week-old ddY male SPF mice (Nippon .SLC, body weight: about 30 g) were pre-bred for 1 week, then, divided into two groups of a control group and an administration group (5 mice for each group). Each of the mice in both the groups was bred for 6 weeks with a high fat diet (lard 40%, corn starch 10%, granulated sugar 9%, mineral mix 4%, vitamin mix 1%, casein 29%, cellulose 5%, lactose 2%). For the mice in the administration group, a specimen solution prepared by dissolving the compound (I) in purified water was continuously administered for 6 weeks with a dose of 250 mg/kg once a day while allowing water-drinking, and the body weight was measured at a frequency of once a week, during the feeding period with the high fat diet. For the mice in the control group, purified water was administered for 6 weeks instead of the specimen solution while allowing water-drinking.
The average value of the body weight of mice in each group and the standard error thereof were measured, and a significant difference test (t-test) between both the groups was carried out.
On the other hand, after completion of the above-mentioned continuous administration allowing water-drinking for 6 weeks, serum was collected from each mouse and blood biochemical values were measured, and liver and fat were excised and the weights of them were measured, respectively. Using the respective measurement results, the average value and the standard error were measured for each group, and a significant difference test (t-test) was carried out between both the groups.

[2] = Oral administration for two weeks at 2500 mg/kg per day, observation of side effects; type: in vivo; conditions: ten ICR male mice, versus control group
[3] = Hair growth ameliorating action on hair-removed back of mice, transdermal administration; type: in vivo, C3H male mice; conditions: for Hair growth score versus control group (FIG. 9): 10 mg once a day
Text: 6 week-old C3H male mice (Nippon SLC, body weight: about 30 g) were pre-bred for 1 week, then, divided into two groups of a control group and an administration group (4 mice for each group). Hair on the back of the mice in both groups was removed with an electric shaver, and hair growth effect was investigated. […] For the mice in the control group, 45% water-containing ethanol was transdermally administered instead of the specimen solution for 28 days.
For observation of hair growth condition, hair growth score and hair length were measured.
For measurement of hair growth score, the back of a mouse on which a specimen solution or 45% water-containing ethanol had been applied was visually observed, and based on the conditions directly after hair removal, a case of no change was endowed with 0 point, a case of color change to blue at a center portion on the back was endowed with 1 point, a case of color change from blue black to gray at a center portion on the back was endowed with 2 points, a case of observation of hair growth at a center portion on the back was endowed with 3 points, and a case of covering about 50% at a center portion on the back with back hair and recovery of color before hair removal at a center portion on the back was endowed with 4 points. The score average value and the standard error of the mice in both the groups were measured. Since there was observed […] irregularity in hair growth score between the control group and the administration group, the Mann-Whitney U-test was carried out as a significant difference test between both groups.
On the other hand, for measurement of hair length, part of hair was collected every one week, then, 10 hairs were selected randomly while removing extremely longer hairs and extremely shorter hairs, and lengths of them were measured by a microscope.

[4] = 250 mg/kg once a day for 6 weeks, average +/- standard error of five mice
[5] = serum after 6 weeks, 250 mg/kg once a day, average +/- standard error of five mice

CC(C)=CC1C/C(=C/CO[C@@H]2OC(CO)[C@@H](O)C(O)C2O)C(=O)O1 (stereo partly drawn) [compound (I), 1-O-β-D-glucopyranosylgeraniol-10,5-olide]
Weight of fat, around kidney [1, 4]: 0.035 ± 0.010 g | Weight of fat, around posterior abdominal wall [1, 4]: 0.186 ± 0.096 g | Body weight versus control group (FIG. 8) ([1]; 250 mg/kg once a day for 6 weeks, weighed once a week): the body weight transited at a lower level | Blood biochemical value, blood glucose level ([1]; after 6 weeks, 250 mg/kg once a day, average +/- standard error of five mice): 183 +/− 35.7** mg/dL | Weight of liver ([1]; compound 250 mg/kg once a day for 6 weeks, average +/- standard error of five mice): 1.124 ± 0.124 g | Blood biochemical value, total cholesterol [1, 5]: 118 ± 22.3 mg/dL | Blood biochemical value, triglyceride [1, 5]: 26 ± 15.8 mg/dL | Side effect [2]: did not provide a recognizable side effect; also recorded: no side effect was recognized at all | Hair growth score versus control group (FIG. 9) ([3]; day 7 to day 17 after transdermal administration): tended to be higher | Hair growth score versus control group (FIG. 9) ([3]; days 13, 15 and 16 after transdermal administration, Mann-Whitney U-test): significantly higher | Hair length versus control group ([3]; hair collected every one week, 10 hairs measured by microscope, 10 mg transdermally once a day, data not shown): no significant difference
